Drawing on publication PMC8584349 (International Journal of Molecular Sciences, 2021), this text covers dose reduction and IC50 for two compounds.

Like-named read-outs stand apart in the source and are kept apart here.

Test [1] concerns MERS-CoV PsV. Particulars: in 25-HC/EK1 combination versus alone.
Test [2] relates to MERS-CoV PsV. In words: microbe, parasite or virus in culture. The settings on record: Middle East respiratory syndrome-related coronavirus.
In test [3] the test system is SARS-CoV-2 PsV.
The subject of test [4] is SARS-CoV-2 PsV. In words: microbe, parasite or virus in culture.
Test [5] relates to SARS-CoV-2 PsV. The test can be described thus: microbe, parasite or virus in culture. The format is cell-based. Particulars: Severe acute respiratory syndrome coronavirus 2; target cells pretreated with 25-HC 8–12 h; luciferase; read-out: IC50, inhibition of SARS-CoV-2 PsV infection.
The test system of test [6] is SARS-CoV PsV. In words: microbe, parasite or virus in culture. The format is cell-based. Particulars: Severe acute respiratory syndrome coronavirus, read-out: IC50, inhibition of SARS-CoV PsV infection.
The subject of test [7] is authentic HCoV-229E. In words: microbe, parasite or virus in culture. Type of test: cell-based. The settings on record: Human coronavirus 229E; Huh-7 cell line; cells pretreated with 25-HC 8–12 h; CCK-8; read-out: IC50, inhibition of authentic HCoV-229E infection.
Test [8] has as its system authentic HCoV-229E. The test can be described thus: Authentic virus inhibition assay, HCoV-229E in Huh-7 cells. Type of test: cell-based. The settings on record: Huh-7 cell line, CCK8, triplicate, repeated twice, read-out: IC50, inhibition of HCoV-229E replication. As to the method:
(§1) Inhibition of authentic coronaviruses was performed as previously reported. Briefly, authentic HCoV-OC43 or HCoV-229E was coincubated with a test peptide at different concentrations at 37 °C for 30 min. Then, these authentic virus–peptide mixtures were added into target cells in a 96-well plate (Huh-7 cell line for HCoV-229E, RD cell line for HCoV-OC43). CCK8 solution was used to assess virus-induced cytopathy when the cytopathic effect (CPE) of DMSO-treated target cells was clear and the IC50 value was calculated.

For another test, the system named is SARS-CoV-2 VOC PsVs. Particulars: 12 h.
In a further test the test system is authentic HCoV-OC43. In words: Authentic virus inhibition assay, HCoV-OC43 in RD cells. The format is cell-based. Particulars: RD cell line, CCK8, triplicate, repeated twice, read-out: IC50, inhibition of HCoV-OC43 replication. As to the method:
as §1

Test [9] deals with SARS-CoV PsV. Particulars: 12 h.

For `C[C@H](CCCC(C)(C)O)[C@H]1CC[C@H]2[C@@H]3CC=C4C[C@@H](O)CC[C@]4(C)[C@H]3CC[C@]12C` [25-HC, 25-Hydroxycholesterol], the dose reduction with MERS-CoV PsV [1] turned out to be 4 fold; in the test on SARS-CoV-2 PsV [3] (SARS-CoV-2 PsV, in 25-HC/EK1 combination versus alone) it was 3 fold. Moreover, the IC50 in the test with MERS-CoV PsV [2] (read-out: IC50, tested alone) came to 6800 nM; in the test on MERS-CoV PsV [2] (read-out: IC50, tested in EK1/25-HC combination), 1600 nM; in the test with SARS-CoV-2 PsV [4] (Severe acute respiratory syndrome coronavirus 2, read-out: IC50, tested alone) it was 9300 nM; with SARS-CoV-2 PsV [4] (Severe acute respiratory syndrome coronavirus 2, read-out: IC50, tested in EK1/25-HC combination), 3700 nM; in the test on SARS-CoV-2 PsV [5], 4110 nM; with SARS-CoV PsV [6], 2790 nM. Further, the IC50 in the test with authentic HCoV-229E [7] turned out to be 5350 nM.

Consider `CC[C@H](C)[C@H](NC(=O)[C@H](C)NC(=O)[C@H](CCC(=O)O)NC(=O)[C@H](CCC(=O)O)NC(=O)[C@H](CC(C)C)NC(=O)[C@H](CCCCN)NC(=O)[C@H](CCCCN)NC(=O)[C@H](CCSC)NC(=O)[C@H](CCC(=O)O)NC(=O)[C@H](Cc1ccc(O)cc1)NC(=O)[C@H](CCC(=O)O)NC(=O)[C@H](CC(C)C)NC(=O)[C@H](CC(=O)O)NC(=O)[C@H](CC(C)C)NC(=O)[C@H](Cc1ccccc1)NC(=O)[C@@H](NC(=O)[C@@H](NC(=O)[C@H](CC(N)=O)NC(=O)[C@@H](NC(=O)[C@H](CCC(N)=O)NC(=O)[C@H](CC(=O)O)NC(=O)[C@H](CC(C)C)NC(=O)[C@@H](N)CO)[C@@H](C)CC)C(C)C)[C@@H](C)O)C(=O)N[C@@H](CCCCN)C(=O)N[C@@H](CCCCN)C(=O)N[C@@H](CC(C)C)C(=O)N[C@@H](CCC(=O)O)C(=O)N[C@@H](CCC(=O)O)C(=O)N[C@@H](CO)C(=O)N[C@@H](Cc1ccc(O)cc1)C(=O)N[C@H](C(=O)N[C@@H](CC(=O)O)C(=O)N[C@@H](CC(C)C)C(=O)N[C@@H](CCCCN)C(=O)N[C@@H](CCC(=O)O)C(=O)N[C@@H](CC(C)C)C(=O)O)[C@@H](C)CC` [EK1], for which the IC50 in the test with authentic HCoV-229E [8] was 2200 nM; in the test on SARS-CoV-2 VOC PsVs, 480 to 4610 nM; in the test with SARS-CoV-2 PsV [3] (PsV, 12 h), 840 nM; in the test with authentic HCoV-OC43, 1510 nM; with SARS-CoV PsV [9] it was 2800 nM.
